Literature values as cited in patent US9005185B2, “Nanochanneled device and related methods” (The Board of Regents of the University of Texas System, priority 2008, dated 2015).

Biological target: T1, Aromatase (Homo sapiens, UniProt P11511)
T1 sequence (P11511 1-503): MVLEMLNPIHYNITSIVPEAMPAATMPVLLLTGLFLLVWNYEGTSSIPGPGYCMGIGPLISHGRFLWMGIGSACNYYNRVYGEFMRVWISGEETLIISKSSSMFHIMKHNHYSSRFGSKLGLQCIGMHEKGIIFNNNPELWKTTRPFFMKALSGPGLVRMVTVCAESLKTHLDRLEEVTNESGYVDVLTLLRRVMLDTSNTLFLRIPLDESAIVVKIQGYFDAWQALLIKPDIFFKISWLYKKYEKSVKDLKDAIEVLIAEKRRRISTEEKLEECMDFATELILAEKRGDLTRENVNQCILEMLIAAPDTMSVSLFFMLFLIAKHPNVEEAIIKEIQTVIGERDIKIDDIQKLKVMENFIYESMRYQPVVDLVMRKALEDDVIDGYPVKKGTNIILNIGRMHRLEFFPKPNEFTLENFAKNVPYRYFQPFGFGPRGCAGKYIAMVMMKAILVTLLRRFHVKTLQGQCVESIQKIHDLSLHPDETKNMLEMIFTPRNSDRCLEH

In the case of N#Cc1ccc(C(c2ccc(C#N)cc2)n2cncn2)cc1 [letrozole], the inhibits estrogen biosynthesis is listed as “approximately 99%”.
